ChEMBL document CHEMBL5335767, “Synthesis and study of new siderophore analog-ciprofloxacin conjugates with antibiotic activities against Pseudomonas aeruginosa and Burkholderia spp” (Eur J Med Chem, 2023)
Converted amounts (≈) assume the structure as drawn.

Key:
[1] = tested on: Pseudomonas aeruginosa; assay: Antibacterial activity against Pseudomonas aeruginosa PAO1 under muller hinton medium by CLSI protocol based microdilution method; format: functional
[2] = tested on: Pseudomonas aeruginosa; assay: Antibacterial activity against Pseudomonas aeruginosa PAO1 under succinate minimum medium by CLSI protocol based microdilution method; format: functional
[3] = tested on: Pseudomonas aeruginosa; assay: Antibacterial activity against Pseudomonas aeruginosa PAO1 under 1 uM FeCl3 medium by CLSI protocol based microdilution method; format: functional
[4] = tested on: Pseudomonas aeruginosa; assay: Antibacterial activity against Pseudomonas aeruginosa PAD07 under muller hinton medium by CLSI protocol based microdilution method; format: functional
[5] = tested on: Pseudomonas aeruginosa; assay: Antibacterial activity against Pseudomonas aeruginosa PAD07 under succinate minimum medium by CLSI protocol based microdilution method; format: functional
[6] = tested on: Pseudomonas aeruginosa; assay: Antibacterial activity against Pseudomonas aeruginosa PAD07 under 1 uM FeCl3 medium by CLSI protocol based microdilution method; format: functional
[7] = tested on: Pseudomonas aeruginosa; assay: Antibacterial activity against Pseudomonas aeruginosa AM85 under muller hinton medium by CLSI protocol based microdilution method; format: functional
[8] = tested on: Pseudomonas aeruginosa; assay: Antibacterial activity against Pseudomonas aeruginosa AM85 under succinate minimum medium by CLSI protocol based microdilution method; format: functional
[9] = tested on: Pseudomonas aeruginosa; assay: Antibacterial activity against Pseudomonas aeruginosa AM85 under 1 uM FeCl3 medium by CLSI protocol based microdilution method; format: functional
[10] = tested on: Burkholderia pseudomallei; assay: Antibacterial activity against Burkholderia pseudomallei BPS2020IRBA001 under muller hinton medium by CLSI protocol based microdilution method; format: functional
[11] = tested on: Burkholderia pseudomallei; assay: Antibacterial activity against Burkholderia pseudomallei BPS2020IRBA001 under succinate minimum medium by CLSI protocol based microdilution method; format: functional
[12] = tested on: Burkholderia pseudomallei; assay: Antibacterial activity against Burkholderia pseudomallei BPS2020IRBA001 under 1 uM FeCl3 medium by CLSI protocol based microdilution method; format: functional
[13] = tested on: Burkholderia pseudomallei; assay: Antibacterial activity against Burkholderia pseudomallei BPS2020IRBA002 under muller hinton medium by CLSI protocol based microdilution method; format: functional
[14] = tested on: Burkholderia pseudomallei; assay: Antibacterial activity against Burkholderia pseudomallei BPS2020IRBA002 under succinate minimum medium by CLSI protocol based microdilution method; format: functional
[15] = tested on: Burkholderia pseudomallei; assay: Antibacterial activity against Burkholderia pseudomallei BPS2020IRBA002 under 1 uM FeCl3 medium by CLSI protocol based microdilution method; format: functional
[16] = tested on: Burkholderia pseudomallei; assay: Antibacterial activity against Burkholderia pseudomallei K96243 under muller hinton medium by CLSI protocol based microdilution method; format: functional
[17] = tested on: Burkholderia pseudomallei; assay: Antibacterial activity against Burkholderia pseudomallei K96243 under succinate minimum medium by CLSI protocol based microdilution method; format: functional
[18] = tested on: Burkholderia pseudomallei; assay: Antibacterial activity against Burkholderia pseudomallei K96243 under 1 uM FeCl3 medium by CLSI protocol based microdilution method; format: functional
[19] = tested on: Burkholderia pseudomallei; assay: Antibacterial activity against Burkholderia pseudomallei BPS2020IRBA003 under muller hinton medium by CLSI protocol based microdilution method; format: functional
[20] = tested on: Burkholderia pseudomallei; assay: Antibacterial activity against Burkholderia pseudomallei BPS2020IRBA003 under succinate minimum medium by CLSI protocol based microdilution method; format: functional
[21] = tested on: Burkholderia pseudomallei; assay: Antibacterial activity against Burkholderia pseudomallei BPS2020IRBA003 under 1 uM FeCl3 medium by CLSI protocol based microdilution method; format: functional
[22] = tested on: Burkholderia pseudomallei; assay: Antibacterial activity against Burkholderia pseudomallei BPS2020IRBA004 under muller hinton medium by CLSI protocol based microdilution method; format: functional
[23] = tested on: Burkholderia pseudomallei; assay: Antibacterial activity against Burkholderia pseudomallei BPS2020IRBA005 under muller hinton medium by CLSI protocol based microdilution method; format: functional
[24] = tested on: Burkholderia pseudomallei; assay: Antibacterial activity against Burkholderia pseudomallei BPS2020IRBA005 under succinate minimum medium by CLSI protocol based microdilution method; format: functional
[25] = Antibacterial activity against Burkholderia pseudomallei BPS2020IRBA005 under 1 uM FeCl3 medium by CLSI protocol based microdilution method; format: functional; settings: Burkholderia thailandensis
[26] = tested on: Burkholderia thailandensis; assay: Antibacterial activity against Burkholderia thailandensis E264 under muller hinton medium by CLSI protocol based microdilution method; format: functional
[27] = tested on: Burkholderia thailandensis; assay: Antibacterial activity against Burkholderia thailandensis E264 under succinate minimum medium by CLSI protocol based microdilution method; format: functional
[28] = tested on: Burkholderia thailandensis; assay: Antibacterial activity against Burkholderia thailandensis E264 under 1 uM FeCl3 medium by CLSI protocol based microdilution method; format: functional
[29] = tested on: Burkholderia thailandensis; assay: Antibacterial activity against Burkholderia thailandensis E264TS32C10 under muller hinton medium by CLSI protocol based microdilution method; format: functional
[30] = tested on: Burkholderia thailandensis; assay: Antibacterial activity against Burkholderia thailandensis E264TS32C10 under succinate minimum medium by CLSI protocol based microdilution method; format: functional
[31] = tested on: Burkholderia thailandensis; assay: Antibacterial activity against Burkholderia thailandensis E264TS32C10 under 1 uM FeCl3 medium by CLSI protocol based microdilution method; format: functional
[32] = tested on: Burkholderia thailandensis; assay: Antibacterial activity against Burkholderia thailandensis E264TS32C12 under muller hinton medium by CLSI protocol based microdilution method; format: functional
[33] = tested on: Burkholderia thailandensis; assay: Antibacterial activity against Burkholderia thailandensis E264TS32C12 under succinate minimum medium by CLSI protocol based microdilution method; format: functional
[34] = tested on: Burkholderia thailandensis; assay: Antibacterial activity against Burkholderia thailandensis E264TS32C12 under 1 uM FeCl3 medium by CLSI protocol based microdilution method; format: functional
[35] = tested on: Burkholderia thailandensis; assay: Antibacterial activity against Burkholderia thailandensis E264TS32C47 under muller hinton medium by CLSI protocol based microdilution method; format: functional
[36] = tested on: Burkholderia thailandensis; assay: Antibacterial activity against Burkholderia thailandensis E264TS32C47 under succinate minimum medium by CLSI protocol based microdilution method; format: functional
[37] = tested on: Burkholderia thailandensis; assay: Antibacterial activity against Burkholderia thailandensis E264TS32C47 under 1 uM FeCl3 medium by CLSI protocol based microdilution method; format: functional
[38] = tested on: HepG2; assay: Cytotoxicity against human HepG2 cells at 28 ug/ml after 48 hrs by CellTiter-Glo luminescent cell viability assay; format: toxicity, cell-based; settings: hepg2, 48 h, dose 28 µg/ml
[39] = tested on: Lipid bilayer; assay: Binding affinity to bacterial inner membrane mimic PE/PG/CL/PC (60:20:10:10) assessed as maximum insertion pressure
[40] = Stability in aqueous solution assessed as half life; format: physicochemical

## CC(OC(=O)c1cc(=O)c(O)c[nH]1)OC(=O)N1CCN(c2cc3c(cc2F)c(=O)c(C(=O)O)cn3C2CC2)CC1 (stereo not given)
[1]
  MIC: 1 µg/mL (≈ 1.8 µM)
[2]
  MIC: 2 µg/mL (≈ 3.59 µM)
[3]
  MIC: 2 µg/mL (≈ 3.59 µM)
[4]
  MIC: 0.25 µg/mL (≈ 0.449 µM)
[5]
  MIC: 0.25 µg/mL (≈ 0.449 µM)
[6]
  MIC: 0.25 µg/mL (≈ 0.449 µM)
[7]
  MIC: 32 µg/mL (≈ 57.5 µM)
[8]
  MIC: 64 µg/mL (≈ 115 µM)
[9]
  MIC: 64 µg/mL (≈ 115 µM)
[10]
  MIC: 32 µg/mL (≈ 57.5 µM)
[11]
  MIC: 32 µg/mL (≈ 57.5 µM)
[12]
  MIC: 32 µg/mL (≈ 57.5 µM)
[13]
  MIC: 16 µg/mL (≈ 28.8 µM)
[14]
  MIC: 16 µg/mL (≈ 28.8 µM)
[15]
  MIC: 16 µg/mL (≈ 28.8 µM)
[16]
  MIC: 1 µg/mL (≈ 1.8 µM)
[17]
  MIC: 1 µg/mL (≈ 1.8 µM)
[18]
  MIC: 1 µg/mL (≈ 1.8 µM)
[19]
  MIC: 2 µg/mL (≈ 3.59 µM)
[20]
  MIC: 2 µg/mL (≈ 3.59 µM)
[21]
  MIC: 4 µg/mL (≈ 7.19 µM)
[22]
  MIC: 8 µg/mL (≈ 14.4 µM)
[23]
  MIC: 16 µg/mL (≈ 28.8 µM)
[24]
  MIC: 1 µg/mL (≈ 1.8 µM)
[25]
  MIC: 2 µg/mL (≈ 3.59 µM)
[26]
  MIC: 4 µg/mL (≈ 7.19 µM)
[27]
  MIC: 4 µg/mL (≈ 7.19 µM)
[28]
  MIC: 4 µg/mL (≈ 7.19 µM)
[29]
  MIC: 128 µg/mL (≈ 230 µM)
[30]
  MIC: 32 µg/mL (≈ 57.5 µM)
[31]
  MIC: 32 µg/mL (≈ 57.5 µM)
[32]
  MIC: 16 µg/mL (≈ 28.8 µM)
[33]
  MIC: 16 µg/mL (≈ 28.8 µM)
[34]
  MIC: 8 µg/mL (≈ 14.4 µM)
[35]
  MIC: 8 µg/mL (≈ 14.4 µM)
[36]
  MIC: 8 µg/mL (≈ 14.4 µM)
[37]
  MIC: 4 µg/mL (≈ 7.19 µM)
[38]
  Activity: Non-Toxic
[39]
  Activity: 29.5 mN/meter
[40]
  half-life: 168 h
